Assay results: USRE30241E, “Esters of 3-(hydroxy or hydroxymethyl)-4-hydroxyphenyl aminomethyl ketones” (Sterling Drug Inc., priority 1970, dated 1980)
Read-outs that look alike come from different tables or passages of the source.

Key:
[1] = tested on: carbachol- or histamine-induced bronchoconstriction; experiment: Bronchodilator Test Method I, anesthetized dog, intravenous activity; assay type: in vivo; details: Canis lupus familiaris, read-out: Bronchodilatation; for inhibition in vivo at 0.068 mg/kg: 68 mcg/kg i.v.; for inhibition in vivo at 0.137 mg/kg: 137 mcg/kg i.v.; for inhibition in vivo at 0.274 mg/kg: 274 mcg/kg i.v.; for inhibition in vivo at 0.0012 mg/kg: 1.2 mcg/kg i.v.; for inhibition in vivo at 0.006 mg/kg: 6.0 mcg/kg i.v.; for inhibition in vivo at 0.025 mg/kg: 25 mcg/kg i.v.; for inhibition in vivo at 0.0028 mg/kg: 2.8 mcg/kg i.v.; for inhibition in vivo at 0.0056 mg/kg: 5.6 mcg/kg i.v.; for inhibition in vivo at 0.03 mg/kg: 30 mcg/kg i.v.; for inhibition in vivo at 0.24 mg/kg: 240 mcg/kg i.v.
Procedure: Bronchodilator activity was tested in anesthetized dogs (Test Method I) and in vitro on the perfused guinea pig lung (Test Method II), using the following pharmacological test procedures
(§1) Male and female dogs weighing 9-18 kg. each were anesthetized with pentobarbital sodium (30 mg./kg. i.v.). Each animal, with thorax opened at the midsternum, was maintained under artificial ventilation using a constant volume pump (250 ml./stroke; 10 to 12 strokes per minute) attached to the tracheal cannula. The flow of air was controlled by a glass or plastic valve which closed and opened respectively on inflow and outflow of the air to and from the tracheal cannula. Bronchoconstriction and/or bronchodilatation were measured from changes in the basal airway pressure reflected by a transducer attached to the sidearm of the cannula relayed to a polygraph.
(§2) Control bronchoconstrictions were induced by intravenous injections of carbachol (choline chloride carbamate) in doses ranging from 4 to 6 micrograms per kilogram or histamine diphosphate in doses ranging from 35 to 45 micrograms per kilogram.
Solutions of the test compounds were prepared in distilled water or in saline (for infusion). […] These solutions were then tested for bronchodilator activity in three ways, viz. (1) by mixing a graded dose of test compound with the constant does of carbachol or histamine in a syringe and injecting the mixture into the femoral vein of the dog, (2) by producing the bronchoconstriction first and injecting the test compound at the time of maximum constriction, and (3) by injecting the test compound first followed by carbachol or histamine in 1-10 minutes. Injections were repeated at 20-30 minutes. Bronchodilator values were obtained by measuring the areas under the response polygraph tracings (the first 5 munite period) of carbachol or histamine controls and of the experimentals using a planimeter. Decrease in the area thus measured was expressed as a percent bronchodilatation in reference to the area of control carbachol or histamine constriction. The mean bronchodilatations (the reductions in constrictions) were plotted against the doses administered and the mean effective dose (ED50) was estimated in micrograms/kilogram from the does-response curves. Blood pressure recording was taken from the femoral artery using an arterial transducer relayed to a polygraph.

[2] = tested on: carbachol- or histamine-induced bronchoconstriction; experiment: Bronchodilator Test Method I, anesthetized dog, intraduodenal activity; assay type: in vivo; details: Canis lupus familiaris, read-out: Bronchodilation; for inhibition in vivo at 0.068 mg/kg: 68 mcg/kg (salt) intraduodenal; for inhibition in vivo at 0.136 mg/kg: 136 mcg/kg (salt) intraduodenal
Procedure: as §1
as §2, with “kilogram. In the majority of test animals, the above doses of constrictor agents produced a 100-200 percent increase in the normal airway pressure or amplitude.” for “kilogram.”
Injections were repeated at 20-30 minutes.
In intraduodenal studies, in the dog prepared for bronchodilation measurements, the duodenal segment of the small intestine was made easily accessible through a small mid-line incision in the abdomen. The test solution was injected into the duodenum using a fine needle. Commencing 5 minutes after medication, the degree and duration of bronchodilation were tested by injecting a control dose of carbachol or histamine at intervals of 30-60 minutes until the recovery or near-recovery was apparent. In some dogs showing an early recovery, a reference drug was also tested in the same dog 1.5-2 hours after the first medicine.

[3] = tested on: guinea pig bronchioles constricted by carbachol; experiment: Bronchodilator Test Method II, in vitro perfused guinea pig lung
Procedure: In this method bronchodilator activity in vitro was determined by testing the effect of graded doses of the test compounds on guinea pig bronchioles constricted by carbachol, using the technique reported by Sollman and von Oettingen, Proc. Soc, Exp. Biol. Med., 25,692 (1928) as modified by Tainter, Pedden, and James, J. Pharm. Exp. Ther., 51, 371 (1934) and by Luduena, von Euler, Tullar, and Lands, Arch. intern. Pharmacol., III, 392 (1957).

Cc1cccc(C(=O)Oc2ccc(C(O)CNC(C)(C)C)cc2OC(=O)c2cccc(C)c2)c1 (stereo not drawn) [Example 112, 3,4-bis(m-toluyloxy)-alpha-(tert-butylaminomethyl)benzyl alcohol]
inhibition in vivo at 0.068 mg/kg ([1]; 5 min, 5 min): 38%
inhibition in vivo at 0.137 mg/kg ([1]; 5 min, 5 min): 80%
inhibition in vivo at 0.274 mg/kg ([1]; 5 min, 5 min): 80%
inhibition in vivo at 0.068 mg/kg ([1]; 0.5 h, 30 min): 43%
inhibition in vivo at 0.137 mg/kg ([1]; 0.5 h, 30 min): 60%
inhibition in vivo at 0.274 mg/kg ([1]; 0.5 h, 30 min): 74%
inhibition in vivo at 0.068 mg/kg ([1]; 1 h, 60 min): 27%
inhibition in vivo at 0.137 mg/kg ([1]; 1 h, 60 min): 50%
inhibition in vivo at 0.274 mg/kg ([1]; 1 h, 60 min): 57%
inhibition in vivo at 0.137 mg/kg ([1]; 2 h, 120 min): 37%
inhibition in vivo at 0.274 mg/kg ([1]; 2 h, 120 min): 54%
inhibition in vivo at 0.137 mg/kg ([1]; 3 h, 180 min): 8%
inhibition in vivo at 0.274 mg/kg ([1]; 3 h, 180 min): 33%
inhibition in vivo at 0.274 mg/kg ([1]; 4 h, 240 min): 38%
inhibition in vivo at 0.274 mg/kg ([1]; 4.5 h, 270 min): 25%
inhibition in vivo at 0.068 mg/kg ([2]; 5 min, 5 min): 50%
inhibition in vivo at 0.136 mg/kg ([2]; 5 min, 5 min): 42%
inhibition in vivo at 0.068 mg/kg ([2]; 10 min, 10 min): 0%
inhibition in vivo at 0.136 mg/kg ([2]; 10 min, 10 min): 59%
inhibition in vivo at 0.136 mg/kg ([2]; 0.5 h, 30 min): 67%
inhibition in vivo at 0.136 mg/kg ([2]; 1 h, 60 min): 53%
inhibition in vivo at 0.136 mg/kg ([2]; 2 h, 120 min): 0%
ED50 ([3]; carbachol (Doryl) 1:5 million): 4.4 µg (base)
Duration, Mean ([3]; dose 10 mcg (base)): 104.1 ± 34.9 min

CC(=O)Oc1ccc(C(O)CNC(C)(C)C)cc1OC(=O)c1ccccc1C (stereo not drawn) [Example 147, 3-(o-toluyloxy)-4-acetoxy-alpha-(tert-butylaminomethyl)benzyl alcohol methanesulfonate]
inhibition in vivo at 0.0012 mg/kg ([1]; 5 min, 5 min): 36%
inhibition in vivo at 0.006 mg/kg ([1]; 5 min, 5 min): 77%
inhibition in vivo at 0.025 mg/kg ([1]; 5 min, 5 min): 100%
inhibition in vivo at 0.0012 mg/kg ([1]; 0.5 h, 30 min): 3%
inhibition in vivo at 0.006 mg/kg ([1]; 0.5 h, 30 min): 9%
inhibition in vivo at 0.025 mg/kg ([1]; 0.5 h, 30 min): 32%
inhibition in vivo at 0.0012 mg/kg ([1]; 1 h, 60 min): 0%
inhibition in vivo at 0.006 mg/kg ([1]; 1 h, 60 min): 0%
inhibition in vivo at 0.025 mg/kg ([1]; 1 h, 60 min): 12%
inhibition in vivo at 0.025 mg/kg ([1]; 2 h, 120 min): 4%
ED50 ([3]; Doryl conc. 1:10 million): 1.9 µg (base)
Duration, Mean ([3]; dose 5 mcg (base), Doryl conc. 1:10 million): 15.9 ± 3.3 min

CC(C)(C)NCC(O)c1ccc(OC(=O)C2(C)CC2)c(OC(=O)C2(C)CC2)c1.Cl (stereo not drawn) [Example 13, 3,4-bis(1-methylcyclopropanecarbonyloxy)-alpha-(tert-butylaminomethyl)benzyl alcohol hydrochloride]
inhibition in vivo at 0.0028 mg/kg ([1]; 2 min, 2 min): 52%
inhibition in vivo at 0.0056 mg/kg ([1]; 2 min, 2 min): 69%
inhibition in vivo at 0.0028 mg/kg ([1]; 0.5 h, 30 min): 48%
inhibition in vivo at 0.0056 mg/kg ([1]; 0.5 h, 30 min): 34%
inhibition in vivo at 0.0028 mg/kg ([1]; 1 h, 60 min): 0%
inhibition in vivo at 0.0056 mg/kg ([1]; 1 h, 60 min): 10%
ED50 ([3]; carbachol (Doryl) 1:5 million): 0.45 µg (base)
Duration, Mean ([3]; dose 0.79 mcg (base)): 15 ± 1.7 min

CCC(NC1CCCC1)C(O)c1ccc(OC(=O)CC(C)C)c(OC(=O)CC(C)C)c1.Cl (stereo not drawn) [Example 138, 3,4-bis(isovaleryloxy)-alpha-[1-(cyclopentylamino)propyl]benzylalcohol hydrochloride]
inhibition in vivo at 0.03 mg/kg ([1]; 5 min, 5 min): 38%
inhibition in vivo at 0.24 mg/kg ([1]; 5 min, 5 min): 49%
inhibition in vivo at 0.03 mg/kg ([1]; 0.5 h, 30 min): 0%
inhibition in vivo at 0.24 mg/kg ([1]; 0.5 h, 30 min): 62%
inhibition in vivo at 0.24 mg/kg ([1]; 1 h, 60 min): 42%
inhibition in vivo at 0.24 mg/kg ([1]; 2 h, 120 min): 46%
ED50 ([3]; carbachol (Doryl) 1:5 million): 0.46 µg (base)
Duration, Mean ([3]; dose 1.5 mcg (base)): 25.4 ± 3.5 min
